# Values joined by “and” are separate entries in the source; they are usually repeats but may differ in a detail not shown here. Identical values can stand only once. Toxic doses and inconclusive results are not listed.
# Tested on: P388 leukemia ip, CD2F1 mice, survival T/C
# Experiment: NCI In Vivo Anticancer Drug Screen. Data for tumor model P388 Leukemia (intraperitoneal) in CD2F1 (CDF1) mice
# Conditions: endpoint: median survival time, higher = longer survival
# Outline: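 Mice carrying the transplanted tumor received test compound or vehicle. Survival was recorded in each group, and the value is the treated-group measurement divided by that of the vehicle-treated control group.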
# [1] = dose: 25.0 mg/kg/injection, schedule: Q04DX003 (ip), vehicle: saline with Tween-80
# [2] = dose: 50.0 mg/kg/injection, schedule: Q04DX003 (ip), vehicle: saline with Tween-80
# [3] = dose: 100.0 mg/kg/injection, schedule: Q04DX003 (ip), vehicle: saline with Tween-80
# [4] = dose: 50.0 mg/kg/injection, schedule: Q01DX005 (ip), vehicle: Klucel (hydroxypropylcellulose) (HPC)
# [5] = dose: 100.0 mg/kg/injection, schedule: Q01DX005 (ip), vehicle: Klucel (hydroxypropylcellulose) (HPC)
# [6] = dose: 100.0 mg/kg/injection, schedule: Q01DX001 (ip), vehicle: saline with Tween-80
# [7] = dose: 200.0 mg/kg/injection, schedule: Q01DX001 (ip), vehicle: saline with Tween-80
# [8] = dose: 25.0 mg/kg/injection, schedule: Q01DX009 (ip), vehicle: saline with Tween-80
# [9] = dose: 50.0 mg/kg/injection, schedule: Q01DX009 (ip), vehicle: saline with Tween-80
# [10] = dose: 100.0 mg/kg/injection, schedule: Q01DX009 (ip), vehicle: saline with Tween-80
# [11] = dose: 60.0 mg/kg/injection, schedule: Q01DX005 (ip), vehicle: saline with Tween-80
# [12] = dose: 120.0 mg/kg/injection, schedule: Q01DX005 (ip), vehicle: saline with Tween-80
# [13] = dose: 240.0 mg/kg/injection, schedule: Q01DX005 (ip), vehicle: saline with Tween-80
# [14] = dose: 200.0 mg/kg/injection, schedule: Q04DX003 (ip), vehicle: saline with Tween-80
# [15] = dose: 400.0 mg/kg/injection, schedule: Q04DX003 (ip), vehicle: saline with Tween-80
# [16] = dose: 50.0 mg/kg/injection, schedule: Q01DX009 (ip), vehicle: saline
# [17] = dose: 100.0 mg/kg/injection, schedule: Q01DX009 (ip), vehicle: saline
# [18] = dose: 200.0 mg/kg/injection, schedule: Q01DX009 (ip), vehicle: saline
smiles,measurement,setting,value
CC(=O)C1=C(C)NC(C)=C(C(C)=O)C1c1cccc([N+](=O)[O-])c1,T/C,[1],100 % of control
same,T/C,[2],100 % of control
same,T/C,[3],100 % of control and 91 % of control
COc1cc2c(cc1OC)[N+]([O-])=C(c1ccccc1)C2=O,T/C,[4],94 % of control
same,T/C,[5],93 % of control
NC(=O)Cc1[nH]ccc1C(=O)O,T/C,[6],103 % of control
same,T/C,[7],97 % of control
same,T/C,"dose: 400.0 mg/kg/injection, schedule: Q01DX001 (ip), vehicle: saline with Tween-80",97 % of control
CC(=O)c1c(-c2ccccc2)noc1-c1ccccc1,T/C,"dose: 100.0 mg/kg/injection, schedule: Q04DX003 (ip), vehicle: saline",102 % of control
same,T/C,"dose: 200.0 mg/kg/injection, schedule: Q04DX003 (ip), vehicle: saline",102 % of control
same,T/C,"dose: 400.0 mg/kg/injection, schedule: Q04DX003 (ip), vehicle: saline",101 % of control
CCOC(=O)c1ccc2c(c1)Nc1cc3ccccc3cc1N2,T/C,"dose: 25.0 mg/kg/injection, schedule: Q01DX009 (ip), vehicle: saline + alcohol",104 % of control
same,T/C,"dose: 50.0 mg/kg/injection, schedule: Q01DX009 (ip), vehicle: saline + alcohol",88 % of control
same,T/C,"dose: 100.0 mg/kg/injection, schedule: Q01DX009 (ip), vehicle: saline + alcohol",101 % of control
O=C(O)C1Cc2c([nH]c3ccccc23)C(CCCCO)N1 (stereo unspecified),T/C,"dose: 6.25 mg/kg/injection, schedule: Q01DX009 (ip), vehicle: Klucel (hydroxypropylcellulose) (HPC)",101 % of control
same,T/C,"dose: 12.5 mg/kg/injection, schedule: Q01DX009 (ip), vehicle: Klucel (hydroxypropylcellulose) (HPC)",99 % of control
Cc1c2c(c(O)c3c(O)cccc13)C(=O)C1(O)C(O)=C(C(=O)NCNc3ccc(C(N)=O)cn3)C(=O)C(N(C)C)C1C2 (stereo unspecified),T/C,"dose: 3.12 mg/kg/injection, schedule: Q01DX005 (ip), vehicle: saline",111 % of control
same,T/C,"dose: 6.25 mg/kg/injection, schedule: Q01DX005 (ip), vehicle: saline",114 % of control and 117 % of control
same,T/C,"dose: 12.5 mg/kg/injection, schedule: Q01DX005 (ip), vehicle: saline",114 % of control
same,T/C,"dose: 25.0 mg/kg/injection, schedule: Q01DX005 (ip), vehicle: saline",120 % of control
COc1ccc2c(c1OC)C(OC)OC(c1cc3c(cc1CCN(C)C)OCO3)C2 (stereo unspecified),T/C,"dose: 12.5 mg/kg/injection, schedule: Q01DX001 (ip), vehicle: saline + alcohol",91 % of control
same,T/C,"dose: 25.0 mg/kg/injection, schedule: Q01DX001 (ip), vehicle: saline + alcohol",88 % of control
same,T/C,"dose: 50.0 mg/kg/injection, schedule: Q01DX001 (ip), vehicle: saline + alcohol",91 % of control
C/C=C1\CN(C)C2Cc3c([nH]c4ccccc34)C(c3c(OC)ccc4c5c([nH]c34)C3(C(=O)OC)CC4CC(CC)C3N(CC5)C4)CC1C2C(=O)OC (stereo unspecified),T/C,"dose: 12.5 mg/kg/injection, schedule: Q01DX009 (ip), vehicle: saline with Tween-80",115 % of control
same,T/C,[8],106 % of control
same,T/C,[9],106 % of control
same,T/C,[10],91 % of control
Cc1cccc(N2C(c3ccccc3)c3ccc(C)cc3NS2=O)c1 (stereo unspecified),T/C,[11],97 % of control
same,T/C,[12],90 % of control
same,T/C,[13],95 % of control
CC(C)(Cl)C1ON1C(C)(C)C (stereo unspecified),T/C,[11],107 % of control
same,T/C,[12],107 % of control
same,T/C,[13],108 % of control
COc1cc(/C=N/N2CC(=O)N(c3ccccc3)CC2=O)cc(OC)c1,T/C,"dose: 6.25 mg/kg/injection, schedule: Q01DX005 (ip), vehicle: saline with Tween-80",97 % of control
same,T/C,"dose: 12.5 mg/kg/injection, schedule: Q01DX005 (ip), vehicle: saline with Tween-80",100 % of control
same,T/C,"dose: 25.0 mg/kg/injection, schedule: Q01DX005 (ip), vehicle: saline with Tween-80",100 % of control
COc1ccc(CC(=O)NCCc2ccc3cc(OC)c(OC)cc3c2)cc1OC,T/C,[3],100 % of control
same,T/C,[14],100 % of control
same,T/C,[15],100 % of control
COC1=CCC2=C(CC[C@H]3[C@H]2CCP3(C)=S)C1 (stereo partly specified),T/C,"dose: 50.0 mg/kg/injection, schedule: Q01DX005 (ip), vehicle: saline + Tween-80 + alcohol",115 % of control
same,T/C,"dose: 100.0 mg/kg/injection, schedule: Q01DX005 (ip), vehicle: saline + Tween-80 + alcohol",106 % of control
same,T/C,"dose: 200.0 mg/kg/injection, schedule: Q01DX005 (ip), vehicle: saline + Tween-80 + alcohol",101 % of control
Cc1cccc(-c2nc(N)nc(N)n2)c1,T/C,[9],92 % of control
same,T/C,[10],95 % of control
same,T/C,"dose: 200.0 mg/kg/injection, schedule: Q01DX009 (ip), vehicle: saline with Tween-80",104 % of control
CC/C(=C/C(F)(F)C(F)(F)C(F)(F)F)[N+](=O)[O-],T/C,"dose: 25.0 mg/kg/injection, schedule: Q01DX009 (ip), vehicle: Klucel (hydroxypropylcellulose) (HPC)",96 % of control
same,T/C,"dose: 50.0 mg/kg/injection, schedule: Q01DX009 (ip), vehicle: Klucel (hydroxypropylcellulose) (HPC)",104 % of control
same,T/C,"dose: 100.0 mg/kg/injection, schedule: Q01DX009 (ip), vehicle: Klucel (hydroxypropylcellulose) (HPC)",102 % of control
COc1cc2cc[n+]3cc4c(ccc5ccccc54)cc3c2cc1OC,T/C,"dose: 6.25 mg/kg/injection, schedule: Q04DX003 (ip), vehicle: distilled water + Tween-80",166 % of control
same,T/C,"dose: 12.5 mg/kg/injection, schedule: Q04DX003 (ip), vehicle: distilled water + Tween-80",158 % of control
same,T/C,"dose: 12.5 mg/kg/injection, schedule: Q04DX003 (ip), vehicle: water",152 % of control
same,T/C,"dose: 25.0 mg/kg/injection, schedule: Q04DX003 (ip), vehicle: distilled water + Tween-80",177 % of control
O=c1[nH]c(=O)c2[nH]c(=O)[nH]c(=O)c2[nH]1,T/C,[4],99 % of control
same,T/C,[5],96 % of control
same,T/C,"dose: 200.0 mg/kg/injection, schedule: Q01DX005 (ip), vehicle: Klucel (hydroxypropylcellulose) (HPC)",103 % of control
COc1ccc(CC(=O)C(=O)O)cc1OCc1ccccc1,T/C,[2],96 % of control
same,T/C,[14],101 % of control
same,T/C,[15],99 % of control
CCOC(=O)c1c[nH]c2c(=O)c3cc(C)ccc3sc2c1=O,T/C,"dose: 50.0 mg/kg/injection, schedule: Q01DX001 (ip), vehicle: saline with Tween-80",95 % of control
same,T/C,[6],93 % of control
same,T/C,[7],87 % of control
CC(=O)NS(=O)(=O)c1ccc(N=Cc2c3ccccc3nc3cc(Cl)ccc23)cc1,T/C,"dose: 100.0 mg/kg/injection, schedule: Q04DX002 (ip), vehicle: saline with Tween-80",101 % of control
same,T/C,"dose: 200.0 mg/kg/injection, schedule: Q04DX002 (ip), vehicle: saline with Tween-80",93 % of control
same,T/C,"dose: 400.0 mg/kg/injection, schedule: Q04DX002 (ip), vehicle: saline with Tween-80",101 % of control
CCCCCSSSCCCCC,T/C,[16],101 % of control
same,T/C,[17],96 % of control
same,T/C,[18],104 % of control
COc1ccc(S(=O)(=O)c2cnc(N3CCCCC3)nc2N)cc1,T/C,"dose: 100.0 mg/kg/injection, schedule: Q04DX002 (ip), vehicle: saline",100 % of control
same,T/C,"dose: 200.0 mg/kg/injection, schedule: Q04DX002 (ip), vehicle: saline",98 % of control
same,T/C,"dose: 400.0 mg/kg/injection, schedule: Q04DX002 (ip), vehicle: saline",97 % of control
CC(=O)NCC(C)c1ccccc1 (stereo unspecified),T/C,[8],102 % of control
Nc1nc2nc3c(nc2c(=O)[nH]1)C(=O)N(c1ccc(C(=O)O)cc1)C3,T/C,"dose: 6.25 mg/kg/injection, schedule: Q04DX003 (ip), vehicle: saline with Tween-80",111 % of control
same,T/C,"dose: 12.5 mg/kg/injection, schedule: Q04DX003 (ip), vehicle: saline with Tween-80",98 % of control
same,T/C,[1],100 % of control and 103 % of control
CCOC(=O)CC(=O)C(OC)OC,T/C,[16],106 % of control
same,T/C,[17],105 % of control
same,T/C,[18],102 % of control
same,T/C,"dose: 400.0 mg/kg/injection, schedule: Q01DX009 (ip), vehicle: saline",98 % of control
COC(=O)C1c2c(C)cc3n2C(C=CC3)C1C(=O)OC (stereo unspecified),T/C,"dose: 100.0 mg/kg/injection, schedule: Q04DX003 (ip), vehicle: Klucel (hydroxypropylcellulose) (HPC)",94 % of control
same,T/C,"dose: 200.0 mg/kg/injection, schedule: Q04DX003 (ip), vehicle: Klucel (hydroxypropylcellulose) (HPC)",93 % of control
same,T/C,"dose: 400.0 mg/kg/injection, schedule: Q04DX003 (ip), vehicle: Klucel (hydroxypropylcellulose) (HPC)",101 % of control

# Source: PubChem BioAssay AID330 (DTP/NCI, 2004)
